US11931356B1, “Compositions and methods for treating human papilloma virus infections” (priority 2022, dated 2024)

How the values were obtained:
[1] = biological target: HPV-16 E6 protein with Cys51 (Human papillomavirus type 16, UniProt P03126); format: binding; settings: whole protein mass spectrum
[2] = biological target: C51S (cysteine 51 mutation to serine) HPV-16 E6 protein (Human papillomavirus type 16, UniProt P03126, C58S); test: whole protein mass spectra of mutant C51S HPV-16 E6 protein upon exposure to compound; format: binding, human papilloma virus 16; settings: whole protein mass spectrum; cysteine 51 replaced by serine
C51S (cysteine 51 mutation to serine) HPV-16 E6 protein, sequence (P03126 8-158 C58S): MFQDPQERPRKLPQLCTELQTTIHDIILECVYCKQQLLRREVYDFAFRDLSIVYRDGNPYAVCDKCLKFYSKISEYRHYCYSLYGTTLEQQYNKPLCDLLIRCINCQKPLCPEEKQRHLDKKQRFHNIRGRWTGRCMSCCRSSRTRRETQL

HPV-16 E6 protein with Cys51, sequence (P03126 8-158): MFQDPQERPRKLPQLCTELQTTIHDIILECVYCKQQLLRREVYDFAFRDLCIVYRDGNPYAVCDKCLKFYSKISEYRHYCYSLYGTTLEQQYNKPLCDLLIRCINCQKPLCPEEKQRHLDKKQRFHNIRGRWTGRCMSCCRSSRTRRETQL

SMILES	mass shift of the HPV-16 E6 protein upon exposure to compound (covalent bonding at Cys51) [1]	mass shift of the C51S HPV-16 E6 protein upon exposure to compound [2]
C=CC(=O)N1CCN(c2nc(CCc3ccc(F)c(OC)c3)nc3sc4c(c23)CCCC4)CC1 [Compound 1]	mass shift	lack of mass shift
C=CC(=O)N1CCN(c2nc(CCc3ccc(O)c(F)c3)nc3sc4c(c23)CCCC4)CC1 [Compound 2]	mass shift	lack of mass shift
C=CC(=O)N1CCN(c2nc(CCc3ccc(F)c(O)c3)nc3sc4c(c23)CCCC4)CC1 [Compound 3]	mass shift	lack of mass shift
C=CC(=O)N1CCN(c2nc(CCc3cc(F)c(OC)c(F)c3)nc3sc4c(c23)CCCC4)CC1 [Compound 4]	mass shift	lack of mass shift
C=CC(=O)N1CCN(c2nc(CCc3cnc(OC)c(F)c3)nc3sc4c(c23)CCCC4)CC1 [Compound 5]	mass shift	lack of mass shift
C=CC(=O)N1CCN(c2nc(CCc3ccc(OC)c(OC)c3)nc3sc4c(c23)CCCC4)CC1 [Compound 6]	mass shift	lack of mass shift
C=CC(=O)N1CCN(C(=O)CN2CCc3sccc3C2c2cccc3ccccc23)CC1 (stereo not shown) [Compound 7]	mass shift	lack of mass shift
C=CC(=O)N1CCN(c2nc(C3CCCC3)nc3cccc(F)c23)CC1 [Compound 8]	mass shift	lack of mass shift
C=CC(=O)N1CCN(C(=O)CN2CCc3sccc3C2c2cccc3ncccc23)CC1 (stereo not shown) [Compound 9]	mass shift	lack of mass shift
C=CC(=O)N1CCN(c2nc(CCc3ccc(OC)c(F)c3)nc3sc4c(c23)CCCC4)CC1 [Compound 10]	mass shift	lack of mass shift
C=CC(=O)N1CCN(c2nc(CCc3cccc(OC)c3)nc3ccccc23)C(C)C1 (stereo not shown) [Compound 11]	mass shift	lack of mass shift
